Results reported in patent US20050182119A1, “Substituted pyrazoline derivatives” (priority 2004, published 2005).

How the values were obtained:
[1] = system: NC59 human colon tumor cell line; assay: XTT cell viability (antitumoral activity), NC59; type: cell-based; details: incubation time (4 h or 60 h) not stated, read-out: CI50 (μM) colon NC59
Experimental: (§1) The antitumor activity of inventive compounds was evaluated measuring cell metabolic capacity (viability), using the XTT kit and following the recommendations of the manufacturer (Roche Diagnostics). The assays were carried out a minimum of five times, with controls containing unexposed cells, cells with vehicle, or media plus compound. Cells were seeded into 96-well plates in 100 μl of media and incubated for 24 h. Afterwards, the inventive compounds were added at different combination of concentrations (from 1 μM to 80 μM) for 4 h (short time XTT) or 60 h (long time XTT). At the end of the incubation period, 50 μl of a mixture containing XTT and electron coupling reagent to each well were added. After 4 h of incubation at 37° C. the absorbance at 490 nm was noted. The growth inhibitory activity of each compound, was obtained subtracting the absorbance of the blanks and expressed as percentage of cell growth inhibition, as compared with untreated controls. The inhibitory concentration 50 (IC50) was determined from the dose-response curves of compound concentration versus percentage of cell viability with the Hill sigmoidal equation (three parameters), using Sigmaplot 5.0 software.

[2] = system: HCA7 human colon tumor cell line; assay: XTT cell viability (antitumoral activity), HCA7; type: cell-based; details: HCA-7, incubation time (4 h or 60 h) not stated, read-out: CI50 (μM) colon HCA7
Experimental: as §1

[3] = system: HT29 human colon tumor cell line; assay: XTT cell viability (antitumoral activity), HT29; type: cell-based; details: HT-29, incubation time (4 h or 60 h) not stated, read-out: CI50 (μM) colon HT29
Experimental: as §1

[4] = system: PC3 human prostata tumor cell line; assay: XTT cell viability (antitumoral activity), PC3; type: cell-based; details: incubation time (4 h or 60 h) not stated, read-out: CI50 (μM) prostata PC3
Experimental: as §1

[5] = target: COX-1 (Homo sapiens, UniProt P23219); assay: Inhibition of enzyme COX-1; type: biochemical
[6] = target: T1, COX-2 (Homo sapiens, UniProt P35354); assay: Inhibition of enzyme COX-2; type: biochemical
T1 sequence (P35354 18-604): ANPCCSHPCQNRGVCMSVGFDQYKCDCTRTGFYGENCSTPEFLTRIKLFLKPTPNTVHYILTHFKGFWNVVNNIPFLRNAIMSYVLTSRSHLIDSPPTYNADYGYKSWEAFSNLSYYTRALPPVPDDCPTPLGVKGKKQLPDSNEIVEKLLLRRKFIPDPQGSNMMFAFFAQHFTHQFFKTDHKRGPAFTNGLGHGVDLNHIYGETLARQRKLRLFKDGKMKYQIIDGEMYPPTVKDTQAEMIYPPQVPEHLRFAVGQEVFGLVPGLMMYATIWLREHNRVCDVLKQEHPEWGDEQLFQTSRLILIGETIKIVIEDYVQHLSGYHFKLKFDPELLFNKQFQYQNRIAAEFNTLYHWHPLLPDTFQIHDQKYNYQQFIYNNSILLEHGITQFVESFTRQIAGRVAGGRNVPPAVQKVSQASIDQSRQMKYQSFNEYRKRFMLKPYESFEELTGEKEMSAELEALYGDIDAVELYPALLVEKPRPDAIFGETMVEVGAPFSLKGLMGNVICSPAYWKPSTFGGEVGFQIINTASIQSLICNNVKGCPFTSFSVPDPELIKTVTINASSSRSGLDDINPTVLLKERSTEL

COX-1, sequence (P23219 24-599): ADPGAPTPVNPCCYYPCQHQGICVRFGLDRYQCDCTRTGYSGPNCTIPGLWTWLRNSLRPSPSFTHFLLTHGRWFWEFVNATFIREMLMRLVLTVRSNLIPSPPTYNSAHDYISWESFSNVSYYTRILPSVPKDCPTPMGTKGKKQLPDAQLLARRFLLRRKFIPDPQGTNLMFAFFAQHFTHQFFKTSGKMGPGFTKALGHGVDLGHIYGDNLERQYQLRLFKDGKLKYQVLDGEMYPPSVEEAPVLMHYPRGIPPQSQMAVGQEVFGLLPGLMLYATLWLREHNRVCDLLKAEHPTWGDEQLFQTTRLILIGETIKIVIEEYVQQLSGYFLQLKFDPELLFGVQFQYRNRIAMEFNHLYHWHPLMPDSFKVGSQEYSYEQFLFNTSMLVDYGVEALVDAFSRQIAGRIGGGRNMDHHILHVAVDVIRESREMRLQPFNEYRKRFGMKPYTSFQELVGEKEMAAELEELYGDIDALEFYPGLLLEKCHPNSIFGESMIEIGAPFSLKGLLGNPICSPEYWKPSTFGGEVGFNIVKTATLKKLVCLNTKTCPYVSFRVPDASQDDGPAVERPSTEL

| SMILES | IC50 [1] [µM] | IC50 [2] [µM] | IC50 [3] [µM] | IC50 [4] [µM] | inhibiting activity of enzyme COX-1 [5] | inhibiting activity of enzyme COX-2 [6] | melting point [°C] |
| --- | --- | --- | --- | --- | --- | --- | --- |
| Cc1ccc(C)c(C2CC(C(F)(F)F)=NN2c2ccc(S(N)(=O)=O)cc2)c1 (stereo not drawn) [Example 1, 4-[5-(2,5-dimethyl-phenyl)-3-trifluoromethyl-4,5-dihydro-pyrazol-1-yl]-benzenesulfonamide] | 16.3 | 10.5 | 14.9 | 12.3 | do not display any inhibiting activity | do not display any inhibiting activity | 200 to 202 |
| Cc1ccc(-c2cc(C(F)(F)F)nn2-c2ccc(S(N)(=O)=O)cc2)cc1 [Celecoxib, reference compound] | 18.2 | 26.5 | 21.5 | 30.6 | – | – | – |
| NS(=O)(=O)c1ccc(N2N=C(C(F)(F)F)CC2c2cc(C(F)(F)F)cc(C(F)(F)F)c2)cc1 (stereo not drawn) [Example 2, 4-[5-(3,5-bis-trifluoromethyl-phenyl)-3-trifluoromethyl-4,5-dihydro-pyrazol-1-yl]-benzenesulfonamide] | – | – | – | 10.6 | do not display any inhibiting activity | do not display any inhibiting activity | 195 to 197 |
